Results from PubChem BioAssay (NCI).
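Step 1: Grow cells in 96-well plates. Step 2: Expose to compound for 48 hours at 5 concentrations. Step 3: Interpolate endpoints linearly; if unreached, use highest concentration. GI50 is the concentration that inhibits growth by half. TGI: total growth inhibition.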

How the values were obtained:
Test in all cases: DTP human tumour cell line panel, 48 h
HOP-62 NSCLC = tested on: HOP-62 NSCLC
OVCAR-8 ovarian = tested on: OVCAR-8 ovarian
SW-620 colon = tested on: SW-620 colon
HS 578T breast = tested on: HS 578T breast
IGROV1 ovarian = tested on: IGROV1 ovarian
CCRF-CEM leukemia = tested on: CCRF-CEM leukemia
SF-539 CNS = tested on: SF-539 CNS
SK-MEL-28 melanoma = tested on: SK-MEL-28 melanoma
SK-MEL-5 melanoma = tested on: SK-MEL-5 melanoma
786-0 renal = tested on: 786-0 renal
SR leukemia = tested on: SR leukemia
UACC-62 melanoma = tested on: UACC-62 melanoma
LOX IMVI melanoma = tested on: LOX IMVI melanoma
HL-60(TB) leukemia = tested on: HL-60(TB) leukemia
ACHN renal = tested on: ACHN renal
SF-295 CNS = tested on: SF-295 CNS
OVCAR-4 ovarian = tested on: OVCAR-4 ovarian
SK-OV-3 ovarian = tested on: SK-OV-3 ovarian
NCI-H23 lung = tested on: NCI-H23 lung
HCC-2998 colon = tested on: HCC-2998 colon
MCF7 breast = tested on: MCF7 breast
UO-31 renal = tested on: UO-31 renal
MDA-MB-435 = tested on: MDA-MB-435
SNB-19 CNS = tested on: SNB-19 CNS
U251 CNS = tested on: U251 CNS
UACC-257 melanoma = tested on: UACC-257 melanoma
HT29 colon = tested on: HT29 colon
NCI-H460 lung = tested on: NCI-H460 lung
HCT-116 colon = tested on: HCT-116 colon
A498 renal = tested on: A498 renal
SNB-75 CNS = tested on: SNB-75 CNS
COLO 205 colon = tested on: COLO 205 colon
MDA-MB-231 breast = tested on: MDA-MB-231 breast
PC-3 prostate = tested on: PC-3 prostate
HOP-92 NSCLC = tested on: HOP-92 NSCLC
NCI/ADR-RES ovarian = tested on: NCI/ADR-RES ovarian
TK-10 renal = tested on: TK-10 renal
CAKI-1 renal = tested on: CAKI-1 renal
M14 melanoma = tested on: M14 melanoma
EKVX NSCLC = tested on: EKVX NSCLC
SF-268 CNS = tested on: SF-268 CNS
BT-549 breast = tested on: BT-549 breast
T-47D breast = tested on: T-47D breast
HCT-15 colon = tested on: HCT-15 colon
RXF 393 renal = tested on: RXF 393 renal
NCI-H226 lung = tested on: NCI-H226 lung
KM12 colon = tested on: KM12 colon
DU-145 prostate = tested on: DU-145 prostate
SK-MEL-2 melanoma = tested on: SK-MEL-2 melanoma
K-562 leukemia = tested on: K-562 leukemia
MOLT-4 leukemia = tested on: MOLT-4 leukemia
A549 NSCLC = tested on: A549 NSCLC
OVCAR-3 ovarian = tested on: OVCAR-3 ovarian
NCI-H522 lung = tested on: NCI-H522 lung
SN12C renal = tested on: SN12C renal
OVCAR-5 ovarian = tested on: OVCAR-5 ovarian
RPMI-8226 leukemia = tested on: RPMI-8226 leukemia

O=c1[nH]c2cc(F)c(F)cc2nc1Cc1ccccc1
TGI (HOP-62 NSCLC): > 100 µM | TGI (OVCAR-8 ovarian): > 100 µM | TGI (SW-620 colon): > 100 µM | TGI (HS 578T breast): > 100 µM | TGI (IGROV1 ovarian): > 100 µM | TGI (CCRF-CEM leukemia): > 100 µM | TGI (SF-539 CNS): > 100 µM | TGI (SK-MEL-28 melanoma): > 100 µM | TGI (SK-MEL-5 melanoma): > 100 µM | TGI (786-0 renal): > 100 µM | TGI (SR leukemia): > 100 µM | TGI (UACC-62 melanoma): > 100 µM | TGI (LOX IMVI melanoma): > 100 µM | TGI (HL-60(TB) leukemia): > 100 µM | TGI (ACHN renal): > 100 µM | TGI (SF-295 CNS): > 100 µM | TGI (OVCAR-4 ovarian): > 100 µM | TGI (SK-OV-3 ovarian): > 100 µM | TGI (NCI-H23 lung): > 100 µM | TGI (HCC-2998 colon): > 100 µM | TGI (MCF7 breast): > 100 µM | TGI (UO-31 renal): > 100 µM | TGI (MDA-MB-435): > 100 µM | TGI (SNB-19 CNS): > 100 µM | TGI (U251 CNS): > 100 µM | TGI (UACC-257 melanoma): > 100 µM | TGI (HT29 colon): > 100 µM | TGI (NCI-H460 lung): > 100 µM | TGI (HCT-116 colon): > 100 µM | TGI (A498 renal): > 100 µM | TGI (SNB-75 CNS): > 100 µM | TGI (COLO 205 colon): > 100 µM | TGI (MDA-MB-231 breast): > 100 µM | TGI (PC-3 prostate): > 100 µM | TGI (HOP-92 NSCLC): > 100 µM | TGI (NCI/ADR-RES ovarian): > 100 µM | TGI (TK-10 renal): > 100 µM | TGI (CAKI-1 renal): > 100 µM | TGI (M14 melanoma): > 100 µM | TGI (EKVX NSCLC): > 100 µM | TGI (SF-268 CNS): > 100 µM | TGI (BT-549 breast): > 100 µM | TGI (T-47D breast): > 100 µM | TGI (HCT-15 colon): > 100 µM | TGI (RXF 393 renal): > 100 µM | TGI (NCI-H226 lung): > 100 µM | TGI (KM12 colon): > 100 µM | TGI (DU-145 prostate): > 100 µM | TGI (SK-MEL-2 melanoma): > 100 µM | TGI (K-562 leukemia): > 100 µM | TGI (MOLT-4 leukemia): > 100 µM

C(=C1c2ccccc2-c2ccccc21)c1ccncc1
GI50 (HOP-62 NSCLC): 5.35 µM | TGI (HOP-62 NSCLC): 24.3 µM | GI50 (OVCAR-8 ovarian): 7.99 µM | TGI (OVCAR-8 ovarian): 24.9 µM | GI50 (SW-620 colon): 4.22 µM | TGI (SW-620 colon): 17.1 µM | GI50 (HS 578T breast): 3.77 µM | TGI (HS 578T breast): 14.1 µM | GI50 (CCRF-CEM leukemia): 5.36 µM | TGI (CCRF-CEM leukemia): 72.9 µM | GI50 (SF-539 CNS): 5.62 µM | TGI (SF-539 CNS): 19.4 µM | GI50 (SK-MEL-28 melanoma): 10.6 µM | TGI (SK-MEL-28 melanoma): 24.2 µM | GI50 (SK-MEL-5 melanoma): 4.64 µM | TGI (SK-MEL-5 melanoma): 16.7 µM | GI50 (786-0 renal): 8.17 µM | TGI (786-0 renal): 22.7 µM | GI50 (SR leukemia): 3.34 µM | TGI (SR leukemia): 50.1 µM | GI50 (A549 NSCLC): 4.65 µM | TGI (A549 NSCLC): 19.3 µM | GI50 (UACC-62 melanoma): 5.14 µM | TGI (UACC-62 melanoma): 18.6 µM | GI50 (LOX IMVI melanoma): 5.19 µM | TGI (LOX IMVI melanoma): 18.9 µM | GI50 (HL-60(TB) leukemia): 4.33 µM | TGI (HL-60(TB) leukemia): 22.2 µM | GI50 (ACHN renal): 10.6 µM | TGI (ACHN renal): 28 µM | GI50 (SF-295 CNS): 1.98 µM | TGI (SF-295 CNS): 5.28 µM | GI50 (OVCAR-4 ovarian): 12.1 µM | TGI (OVCAR-4 ovarian): 25.6 µM | GI50 (SK-OV-3 ovarian): 6.76 µM | TGI (SK-OV-3 ovarian): 24.5 µM | GI50 (NCI-H23 lung): 9.94 µM | TGI (NCI-H23 lung): 26.6 µM | GI50 (HCC-2998 colon): 11.3 µM | TGI (HCC-2998 colon): 24.5 µM | GI50 (MCF7 breast): 3.92 µM | TGI (MCF7 breast): 14.6 µM | GI50 (MDA-MB-435): 1.81 µM | TGI (MDA-MB-435): 4.85 µM | GI50 (SNB-19 CNS): 5.81 µM | TGI (SNB-19 CNS): 19.5 µM | GI50 (U251 CNS): 3.78 µM | TGI (U251 CNS): 16 µM | GI50 (UACC-257 melanoma): 11.6 µM | TGI (UACC-257 melanoma): 26.7 µM | GI50 (OVCAR-3 ovarian): 2.5 µM | TGI (OVCAR-3 ovarian): 6.75 µM | GI50 (HT29 colon): 4.06 µM | TGI (HT29 colon): 13.9 µM | GI50 (NCI-H460 lung): 3.87 µM | TGI (NCI-H460 lung): 13.7 µM | GI50 (NCI-H522 lung): 5.78 µM | TGI (NCI-H522 lung): 20.4 µM | GI50 (HCT-116 colon): 3.84 µM | TGI (HCT-116 colon): 14.3 µM | GI50 (A498 renal): 2.25 µM | TGI (A498 renal): 10.7 µM | GI50 (SNB-75 CNS): 6.5 µM | TGI (SNB-75 CNS): 24.6 µM | GI50 (COLO 205 colon): 5.32 µM | TGI (COLO 205 colon): 18.3 µM | GI50 (MDA-MB-231 breast): 6.75 µM | TGI (MDA-MB-231 breast): 23.1 µM | GI50 (PC-3 prostate): 13.4 µM | TGI (PC-3 prostate): > 100 µM | GI50 (HOP-92 NSCLC): 11.2 µM | TGI (HOP-92 NSCLC): 25.4 µM | GI50 (SN12C renal): 7.45 µM | TGI (SN12C renal): 21.6 µM | GI50 (OVCAR-5 ovarian): 13.8 µM | TGI (OVCAR-5 ovarian): 33.2 µM | GI50 (NCI/ADR-RES ovarian): 3.88 µM | TGI (NCI/ADR-RES ovarian): 16.2 µM | GI50 (TK-10 renal): 13 µM | TGI (TK-10 renal): 26.9 µM | GI50 (CAKI-1 renal): 2.64 µM | TGI (CAKI-1 renal): 10.9 µM | GI50 (M14 melanoma): 4.39 µM | TGI (M14 melanoma): 15.7 µM | GI50 (EKVX NSCLC): 3.48 µM | TGI (EKVX NSCLC): 15.4 µM | GI50 (SF-268 CNS): 6.39 µM | TGI (SF-268 CNS): 19.8 µM | GI50 (BT-549 breast): 10 µM | TGI (BT-549 breast): 22.4 µM | GI50 (T-47D breast): 6.04 µM | TGI (T-47D breast): 42.5 µM | GI50 (HCT-15 colon): 4.51 µM | TGI (HCT-15 colon): 18.9 µM | GI50 (RXF 393 renal): 5.69 µM | TGI (RXF 393 renal): 21.7 µM | GI50 (NCI-H226 lung): 11.6 µM | TGI (NCI-H226 lung): 31.7 µM | GI50 (KM12 colon): 3.24 µM | TGI (KM12 colon): 11.9 µM | GI50 (DU-145 prostate): 8.28 µM | TGI (DU-145 prostate): 20.9 µM | GI50 (RPMI-8226 leukemia): 7.65 µM | TGI (RPMI-8226 leukemia): 63.4 µM | GI50 (SK-MEL-2 melanoma): 10.6 µM | TGI (SK-MEL-2 melanoma): 26.4 µM | GI50 (K-562 leukemia): 4.35 µM | TGI (K-562 leukemia): > 100 µM | GI50 (MOLT-4 leukemia): 5.04 µM | TGI (MOLT-4 leukemia): 35 µM
